{
  "source": "patent US4330529A",
  "about": "“Antibacterial composition” (Fujisawa Pharmaceutical Co., Ltd., priority 1979, dated 1982)",
  "key": {"Staphylococcus aureus 2": {"system": "Staphylococcus aureus 2", "experiment": "MIC and FIC, Nutrient agar (Test 7)", "type": "cell-based", "settings": "S. aureus 2, 18 h", "description": "(§1) FIC values and FIC Index were calculated in substantially the same manner as described in Test 1."}, "Proteus mirabilis 48": {"system": "Proteus mirabilis 48", "experiment": "MIC and FIC, Nutrient agar (Test 7)", "type": "cell-based", "settings": "P. mirabilis 48, 18 h", "description": "as §1"}, "Escherichia coli 82": {"system": "Escherichia coli 82", "experiment": "MIC and FIC, Nutrient agar (Test 7)", "type": "cell-based", "settings": "E. coli 82, 18 h", "description": "as §1"}, "Proteus vulgaris 7": {"system": "Proteus vulgaris 7", "experiment": "MIC and FIC, Nutrient agar (Tests 7, 9)", "type": "cell-based", "settings": "Proteus vulgaris, 7, 18 h, P. vulgaris 7"}, "[1]": {"system": "Enterobacter aerogenes 25", "experiment": "microbe, parasite or virus in culture", "settings": "Klebsiella aerogenes, 25, 18 h"}, "Citrobacter freundii 35": {"system": "Citrobacter freundii 35", "experiment": "MIC and FIC, Nutrient agar (Tests 6, 7, 9)", "type": "cell-based", "settings": "C. freundii 35, 18 h"}, "[2]": {"system": "Pseudomonas aeruginosa 77", "experiment": "MIC and FIC, Nutrient agar (Test 7)", "type": "cell-based", "settings": "P. aeruginosa 77, 18 h", "description": "as §1"}, "[3]": {"system": "Pseudomonas aeruginosa No.7", "experiment": "MIC and FIC, Nutrient agar, multiple inoculator (Test 4)", "type": "cell-based", "settings": "P. aeruginosa No.7, 10^8 cells/ml, 20 h", "description": "(§2) After the incubation was carried out at 37° C. for 20 hours, MIC values were determined.\nas §1"}, "[4]": {"system": "Pseudomonas aeruginosa No.5", "experiment": "MIC and FIC, Nutrient agar, multiple inoculator (Tests 4, 5)", "type": "cell-based", "settings": "P. aeruginosa No.5, 10^8 cells/ml, 20 h", "description": "as §2"}, "Escherichia coli No.14": {"system": "Escherichia coli No.14", "experiment": "MIC and FIC, Nutrient agar, multiple inoculator (Test 4)", "type": "cell-based", "settings": "E. coli No.14, 10^8 cells/ml, 20 h", "description": "as §2"}, "[5]": {"system": "Pseudomonas aeruginosa No.14", "experiment": "MIC and FIC, Nutrient agar, multiple inoculator (Test 4)", "type": "cell-based", "settings": "P. aeruginosa No.14, 10^8 cells/ml, 20 h", "description": "as §2, §1"}, "[6]": {"system": "Pseudomonas aeruginosa No.9", "experiment": "MIC and FIC, Nutrient agar, multiple inoculator (Test 4)", "type": "cell-based", "settings": "P. aeruginosa No.9, 10^8 cells/ml, 20 h", "description": "as §2, §1"}, "[7]": {"system": "Pseudomonas aeruginosa No.15", "experiment": "MIC and FIC, Nutrient agar, multiple inoculator (Test 4)", "type": "cell-based", "settings": "P. aeruginosa No.15, 10^8 cells/ml, 20 h", "description": "as §2, §1"}, "Serratia marcescens 27": {"system": "Serratia marcescens 27", "experiment": "MIC and FIC, Nutrient agar (Test 7)", "type": "cell-based", "settings": "S. marcescens 27, 18 h", "description": "as §1"}, "[8]": {"system": "Pseudomonas aeruginosa 42", "experiment": "MIC and FIC, Nutrient agar (Test 7)", "type": "cell-based", "description": "as §1"}, "Proteus mirabilis 5": {"system": "Proteus mirabilis 5", "experiment": "MIC and FIC, Nutrient agar (Test 7)", "type": "cell-based", "settings": "P. mirabilis 5, 18 h", "description": "as §1"}, "Staphylococcus aureus 1": {"system": "Staphylococcus aureus 1", "experiment": "MIC and FIC, Nutrient agar (Test 7)", "type": "cell-based", "settings": "S. aureus 1, 18 h", "description": "as §1"}, "Enterobacter aerogenes 7": {"system": "Enterobacter aerogenes 7", "experiment": "MIC and FIC, Nutrient agar (Tests 6, 7, 9)", "type": "cell-based", "settings": "E. aerogenes 7, 18 h", "description": "as §1"}, "[9]": {"system": "Pseudomonas aeruginosa No.12", "experiment": "MIC and FIC, Nutrient agar, multiple inoculator (Test 5)", "type": "cell-based", "settings": "P. aeruginosa No.12; 10^8 cells/ml, 20 h", "description": "as §2, §1"}, "Staphylococcus aureus 3": {"system": "Staphylococcus aureus 3", "experiment": "MIC and FIC, Nutrient agar (Tests 6, 7)", "type": "cell-based", "settings": "S. aureus 3; 18 h", "description": "as §1"}, "[10]": {"system": "Pseudomonas aeruginosa No.18", "experiment": "MIC and FIC, Nutrient agar, multiple inoculator (Test 5)", "type": "cell-based", "settings": "P. aeruginosa No.18; 10^8 cells/ml, 20 h", "description": "as §2, §1"}, "[11]": {"system": "Pseudomonas aeruginosa No.11", "experiment": "MIC and FIC, Nutrient agar, multiple inoculator (Test 5)", "type": "cell-based", "settings": "P. aeruginosa No.11; 10^8 cells/ml, 20 h", "description": "as §2, §1"}, "Escherichia coli 99": {"system": "Escherichia coli 99", "experiment": "MIC and FIC, Nutrient agar (Test 6)", "settings": "E. coli 99; 18 h", "description": "as §1"}, "Klebsiella pneumoniae 8": {"system": "Klebsiella pneumoniae 8", "experiment": "Isobologram, growth in Nutrient broth in various combination ratios (Test 8)", "type": "cell-based", "set-up": "key: +: the test microorganism grew; -: the test microorganism did not grow", "settings": "phosphonic acid salt 0", "description": "After the incubation was carried out at 37° C. for 18 hours, the growth of the test organism was observed."}, "Serratia marcescens 9": {"system": "Serratia marcescens 9", "experiment": "MIC and FIC, Nutrient agar (Test 6)", "type": "cell-based", "settings": "S. marcescens 9; 18 h", "description": "as §1"}, "[12]": {"system": "Pseudomonas aeruginosa No.13", "experiment": "MIC and FIC, Nutrient agar, multiple inoculator (Test 5)", "type": "cell-based", "settings": "P. aeruginosa No.13; 10^8 cells/ml, 20 h", "description": "as §2, §1"}, "Proteus vulgaris 5": {"system": "Proteus vulgaris 5", "experiment": "MIC and FIC, Nutrient agar (Test 6)", "type": "cell-based", "settings": "P. vulgaris 5; 18 h", "description": "as §1"}, "Enterobacter cloacae 18": {"system": "Enterobacter cloacae 18", "experiment": "MIC and FIC, Nutrient agar (Tests 7, 9)", "type": "cell-based", "settings": "Enterobacter cloacae, 18, 18 h, E. cloacae 18, read-out: MIC", "description": "as §1"}, "Escherichia coli 116": {"system": "Escherichia coli 116", "experiment": "MIC and FIC, Nutrient agar (Test 7)", "type": "cell-based", "settings": "E. coli 116, 18 h", "description": "as §1"}, "Citrobacter freundii 63": {"system": "Citrobacter freundii 63", "experiment": "MIC and FIC, Nutrient agar (Test 9)", "type": "cell-based", "settings": "C. freundii 63, 18 h", "description": "as §1"}, "Serratia marcescens 4": {"system": "Serratia marcescens 4", "experiment": "MIC and FIC, Nutrient agar (Test 9)", "type": "cell-based", "settings": "S. marcescens 4, 18 h", "description": "as §1"}, "Proteus vulgaris 22": {"system": "Proteus vulgaris 22", "experiment": "MIC and FIC, Nutrient agar (Test 9)", "type": "cell-based", "settings": "P. vulgaris 22, 18 h", "description": "as §1"}, "[13]": {"settings": "Klebsiella aerogenes, read-out: MIC"}},
  "note": "Where two headings read alike, the source gives them in different places.",
  "data": [
    {"molecule": "NC[C@@H]1CC[C@@H](N)[C@@H](O[C@H]2[C@H](O)[C@@H](O[C@H]3O[C@H](CO)[C@@H](O)[C@H](N)[C@H]3O)[C@H](N)C[C@@H]2N)O1", "note": "[B (Table 10), dibekacin]", "values": [
      {"measurement": "MIC", "setting": "Staphylococcus aureus 2", "result": 1.56, "unit": "µg/mL"},
      {"measurement": "MIC", "setting": "Proteus mirabilis 48", "result": 12.5, "unit": "µg/mL"},
      {"measurement": "MIC", "setting": "Escherichia coli 82", "result": 6.25, "unit": "µg/mL"},
      {"measurement": "MIC", "setting": "Proteus vulgaris 7", "result": 50, "unit": "µg/mL"},
      {"measurement": "MIC", "setting": "[1]", "result": 6.25, "unit": "µg/mL"},
      {"measurement": "MIC", "setting": "Citrobacter freundii 35; Citrobacter freundii, 35, 18 h", "result": 6.25, "unit": "µg/mL"},
      {"measurement": "MIC", "setting": "[2]", "result": 3.13, "unit": "µg/mL"}
    ]},
    {"molecule": "CC1(C)S[C@@H]2[C@H](NC(=O)C(C(=O)O)c3ccccc3)C(=O)N2[C@H]1C(=O)O", "note": "(some centres unmarked) [B (Table 6), carbenicillin]", "values": [
      {"measurement": "MIC", "setting": "[3]", "result": "> 800", "unit": "µg/mL"},
      {"measurement": "MIC", "setting": "[4]; Pseudomonas aeruginosa, read-out: MIC", "result": 50, "unit": "µg/mL"},
      {"measurement": "MIC", "setting": "Escherichia coli No.14", "result": 12.5, "unit": "µg/mL"},
      {"measurement": "MIC", "setting": "[5]", "result": "> 800", "unit": "µg/mL"},
      {"measurement": "MIC", "setting": "[6]", "result": "> 800", "unit": "µg/mL"},
      {"measurement": "MIC", "setting": "[7]", "result": 800, "unit": "µg/mL"}
    ]},
    {"molecule": "NCC[C@H](O)C(=O)N[C@@H]1C[C@H](N)[C@@H](O[C@H]2O[C@H](CN)[C@@H](O)[C@H](O)[C@H]2O)[C@H](O)[C@H]1O[C@H]1O[C@H](CO)[C@@H](O)[C@H](N)[C@H]1O", "note": "[B (Table 11), amikacin]", "values": [
      {"measurement": "MIC", "setting": "Serratia marcescens 27", "result": 12.5, "unit": "µg/mL"},
      {"measurement": "MIC", "setting": "[8]; Pseudomonas aeruginosa, P. aeruginosa 42, 18 h, read-out: MIC", "result": 6.25, "unit": "µg/mL"},
      {"measurement": "MIC", "setting": "Proteus mirabilis 5", "result": 3.13, "unit": "µg/mL"},
      {"measurement": "MIC", "setting": "Staphylococcus aureus 1", "result": 0.78, "unit": "µg/mL"},
      {"measurement": "MIC", "setting": "Enterobacter aerogenes 7; [13]", "result": 6.25, "unit": "µg/mL"}
    ]},
    {"molecule": "gentamicin [B (Table 7)]", "values": [
      {"measurement": "MIC", "setting": "[9]", "result": 12.5, "unit": "µg/mL"},
      {"measurement": "MIC", "setting": "Staphylococcus aureus 3", "result": 0.39, "unit": "µg/mL"},
      {"measurement": "MIC", "setting": "[10]", "result": 50, "unit": "µg/mL"},
      {"measurement": "MIC", "setting": "[4]", "result": 50, "unit": "µg/mL"},
      {"measurement": "MIC", "setting": "[11]", "result": 3.13, "unit": "µg/mL"},
      {"measurement": "MIC", "setting": "Citrobacter freundii 35", "result": 3.13, "unit": "µg/mL"},
      {"measurement": "MIC", "setting": "Escherichia coli 99", "result": 12.5, "unit": "µg/mL"},
      {"measurement": "growth of the test organism", "setting": "Klebsiella pneumoniae 8; gentamicin sulfate 0.001 mcg/ml", "result": "+"},
      {"measurement": "growth of the test organism", "setting": "Klebsiella pneumoniae 8; gentamicin sulfate 0.003 mcg/ml", "result": "+"},
      {"measurement": "growth of the test organism", "setting": "Klebsiella pneumoniae 8; gentamicin sulfate 0.006 mcg/ml", "result": "+"},
      {"measurement": "growth of the test organism", "setting": "Klebsiella pneumoniae 8; gentamicin sulfate 0.01 mcg/ml", "result": "+"},
      {"measurement": "growth of the test organism", "setting": "Klebsiella pneumoniae 8; gentamicin sulfate 0.025 mcg/ml", "result": "+"},
      {"measurement": "growth of the test organism", "setting": "Klebsiella pneumoniae 8; gentamicin sulfate 0.05 mcg/ml", "result": "-"},
      {"measurement": "MIC", "setting": "Serratia marcescens 9", "result": 50, "unit": "µg/mL"},
      {"measurement": "MIC", "setting": "[12]", "result": 100, "unit": "µg/mL"},
      {"measurement": "MIC", "setting": "Proteus vulgaris 5", "result": 6.25, "unit": "µg/mL"},
      {"measurement": "MIC", "setting": "Enterobacter aerogenes 7", "result": 6.25, "unit": "µg/mL"}
    ]},
    {"molecule": "NC[C@H]1O[C@H](O[C@H]2[C@H](O)[C@@H](O[C@H]3O[C@H](CO)[C@@H](O)[C@H](N)[C@H]3O)[C@H](N)C[C@@H]2N)[C@H](N)[C@@H](O)[C@@H]1O", "note": "[B (Table 12), bekanamycin]", "values": [
      {"measurement": "MIC", "setting": "Enterobacter cloacae 18", "result": 6.25, "unit": "µg/mL"},
      {"measurement": "MIC", "setting": "[8]; Pseudomonas aeruginosa, 42, 18 h", "result": 100, "unit": "µg/mL"},
      {"measurement": "MIC", "setting": "Escherichia coli 116", "result": 200, "unit": "µg/mL"},
      {"measurement": "MIC", "setting": "Enterobacter aerogenes 7; [13]", "result": 6.25, "unit": "µg/mL"}
    ]},
    {"molecule": "CC1=C(C(=O)O)N2C(=O)[C@@H](NC(=O)[C@H](N)c3ccccc3)[C@H]2SC1", "note": "[B (Table 14), Cephalexin]", "values": [
      {"measurement": "MIC", "setting": "Enterobacter cloacae 18", "result": 100, "unit": "µg/mL"},
      {"measurement": "MIC", "setting": "Citrobacter freundii 63", "result": 400, "unit": "µg/mL"},
      {"measurement": "MIC", "setting": "Serratia marcescens 4", "result": 400, "unit": "µg/mL"},
      {"measurement": "MIC", "setting": "Proteus vulgaris 22", "result": 25, "unit": "µg/mL"},
      {"measurement": "MIC", "setting": "Enterobacter aerogenes 7; [13]", "result": 100, "unit": "µg/mL"}
    ]}
  ]
}
